From patent US11559528B2, “BACE1 inhibition for the treatment of cancer” (The Cleveland Clinic Foundation, priority 2019, dated 2023)

Columns and labels:
[1] = system: iPSC-derived M2 macrophages; experiment: Fluorescent phagocytosis screening assay, iPSC-derived M2 macrophages against glioma cells; assay type: cell-based, human; details: for screen of drug libraries and known inhibitors for promoters of macrophage phagocytosis: hit: glioma cells and lung ADC cells
[2] = patients, Phase I to Phase III; cited from earlier work
[3] = system: H1002 and H146 lung cancer cells; experiment: Cell titer viability assay on lung cancer cells; assay type: cell-based, human; details: indicated concentrations, 72 hours, n=3
Procedure: (A) Effects of BACE1 inhibitors on lung cancer cell proliferation. H1002 and H146 lung cancer cells were treated with the indicated concentrations of the BACE1 inhibitor AZD3293, MK-8931, AZD3839, or PF-06751979 (PF) for 72 hours. Cell viability was assessed by cell titer assay (n=3). (B-D) A preclinical trial of MK-8931 for lung cancer treatment in xenograft models. H1002 lung cancer cells (5×106) were transplanted into mouse right flank through subcutaneous injection to establish subcutaneous lung cancer xenografts. […] Tumors dissected from mice of each group were photographed (C) and weighed (D). […] Data are shown as mean SEM. p **<0.01, Student's t-test.

Row | SMILES | macrophage phagocytosis against cancer cells [1] | screen of drug libraries and known inhibitors for promoters of macrophage phagocytosis: hit [1] | tolerability / safety in AD clinical trials [2] | lung cancer cell proliferation (cell viability) [3]
1 | CC#Cc1cncc(-c2ccc3c(c2)[C@@]2(N=C(C)C(N)=N2)[C@]2(CC[C@@H](OC)CC2)C3)c1 [AZD3293] | promotes macrophage phagocytosis against cancer cells | hits | very safe for patients | suppressed lung cancer cell proliferation
2 | NC1=N[C@@](c2cccc(-c3cncnc3)c2)(c2ccnc(C(F)F)c2)c2cccc(F)c21 [AZD3839] |  | hits |  | suppressed lung cancer cell proliferation
3 | Cn1cnc2c(F)c(Nc3ccc(Br)cc3Cl)c(C(=O)NOCCO)cc21 [AZD6244] |  | hits |  | 
4 | C[C@@]1(c2nc(NC(=O)c3ncc(C(F)(F)F)cc3Cl)ccc2F)CO[C@@](C)(C(F)(F)F)C(N)=N1 [CNP520] | promotes macrophage phagocytosis against cancer cells | hits | very safe for patients | 
5 | NC1=N[C@@]2(c3cc(NC(=O)c4cnc(C(F)F)cn4)ccc3F)CO[C@H](C(F)(F)F)[C@H]2CS1 [E2609] | promotes macrophage phagocytosis against cancer cells | hits |  | 
6 | C[C@@]1(c2cc(NC(=O)c3ccc(C#N)cn3)ccc2F)C=CSC(N)=N1 [JNJ-54861911] |  | hits |  | 
7 | CS[C@@]1(C(=O)Nc2ccc3[nH]nc(-c4ccc(OC(C)C)nc4)c3c2)CCN(CC(=O)N2CC=C(c3ccc(-c4ncn(C)n4)cc3)CC2)C1 [MK-8353] |  | hits |  | 
8 | C[C@H]1C[C@H]2CSC(N)=N[C@@]2(c2nc(NC(=O)c3ccc(OC(F)F)cn3)cs2)CO1 [PF-06751979] |  | hits |  | suppressed lung cancer cell proliferation
